US20060275303A1, “Modulating angiogenesis using LL-37/HCAP-18” (priority 2003, published 2006)
“Also recorded” adds a separate entry of the source. Where no end group is shown, it is not given here. [ ]: non-standard residue; d: D form.

Tests used:
[1] = system: HUVECs; assay: In vitro proliferation assay with HUVECs; format: cell-based, human
Method: (§1) Endothelial cells from human umbilical veins (HUVEC) were isolated as described before^8. 10^4 cells were seeded on six well plastic dishes in serum free medium. Different concentrations of LL-37 were added to the culture medium. VEGF (5 ng/ml, 165 amino acid variant, Sigma Chemicals, Munich, Germany) was used as positive control. After 72 h the cells were detached from the support and counted. Experiments were repeated ten times using synthetic LL-37/hCAP-18 (37 C-terminal amino acids) and the hexapeptide WKYMVm, wherein “m” denotes the D-form of the amino acid methionine, from two different sources (IPF Pharmaceuticals, Hannover, Germany and Institute for Biochemistry, Humboldt-University of Berlin, Germany). As control peptide we used the peptide L-14 […] to have any interactions with FPRL1 from the same source (Humboldt-University). Human serum (10%, donor with ABO blood group O) was applied under the same conditions to analyze any impact on induction of proliferation by LL-37. For inhibition experiments we applied inhibitors of G-protein coupled receptors (pertussis toxin, 10 ng/ml), PI-3K (wortmannin), and PKC (GF 109203X). For Matrigel assays HUVECs were seeded on Matrigel support (Beckton Dickinson, Franklin Lakes, N.J.) and cultivated in serum free medium in the absence or presence of 0.5 μg/ml LL-37. After 18 h, the cultures were inspected for the formation of rings and cords. Experiments were repeated three times.
We measured the ability of LL-37/hCAP-18 to accelerate proliferation of HUVECs in a proliferation assay. […] HUVECs were seeded on six well plastic dishes and cultivated in serum free medium. Different concentrations of LL-37/hCAP-18 and control peptides were added to the culture medium. Figures on the left hand side indicate the numbers of cells per μl of volume after 72 h. VEGF was used as positive control. In vitro proliferation was not inhibited by human serum. A significance level of P<0.05 is labeled with **.b. […] HUVECs were seeded on Matrigel support and cultivated in serum free medium in the absence (c) or presence (d) of 0.5 μg/ml LL-37/hCAP-18. After 18 h, the cultures were inspected for the formation of rings and cords. Representative figures are shown.

[2] = system: HUVECs; assay: In vitro Matrigel assay (formation of rings and cords); format: cell-based, human; settings: HUVECs on Matrigel, serum free medium, 0.5 μg/ml, 18 h
Method: Endothelial cells from human umbilical veins (HUVEC) were isolated as described before^8. 10^4 cells were seeded on six well plastic dishes in serum free medium. Different concentrations of LL-37 were added to the culture medium. VEGF (5 ng/ml, 165 amino acid variant, Sigma Chemicals, Munich, Germany) was used as positive control. After 72 h the cells were detached from the support and counted. Experiments were repeated ten times using synthetic LL-37/hCAP-18 (37 C-terminal amino acids) and the hexapeptide WKYMVm, wherein “m” denotes the D-form of the amino acid methionine, from two different sources (IPF Pharmaceuticals, Hannover, Germany and Institute for Biochemistry, Humboldt-University of Berlin, Germany). As control peptide we used the peptide L-14 […] to have any interactions with FPRL1 from the same source (Humboldt-University). Human serum (10%, donor with ABO blood group O) was applied under the same conditions to analyze any impact on induction of proliferation by LL-37. For inhibition experiments we applied inhibitors of G-protein coupled receptors (pertussis toxin, 10 ng/ml), PI-3K (wortmannin), and PKC (GF 109203X). […]
We measured the ability of LL-37/hCAP-18 to accelerate proliferation of HUVECs in a proliferation assay. […]

[3] = system: ischemic hindlimb; assay: Rabbit hind limb model of arteriogenesis and angiogenesis; format: in vivo; settings: 200 μg intramuscular 7 days after femoral artery excision, vs PBS control, day 35
Method: To analyze angiogenic effects of LL-37 in vivo we used a rabbit model of angiogenesis. German Giant Rabbits (6.5±0.4 kg, n=8) were subjected to ligation of the external iliac artery (proximally), the popliteal and saphenous arteries (distally) and all femoral artery branches, followed by excision of the entire femoral artery. Seven days after surgery, synthetic LL-37 (200 μg in 1 ml PBS) or PBS alone as control were injected into the muscles of the medial thigh and the calf (5 injections sites, n=4/group). Seven (baseline) and thirty-five days after surgery, angiography was performed by automated injection of contrast agent into the abdominal aorta (4 ml at 2 ml/sec; cine-angiography 25 frames/sec; Siemens, Munich, Germany). Collateral growth was defined as the increase in angiographic collateral score between baseline and 35 days after initial surgery (assessed by counting the contrast-opacified collateral vessels in the medial thigh using a grid overlay)^12. Blood flow was assessed by cine-frame-count of the passage time of contrast agent between the common iliac artery and the anterior tibial artery (proximal and distal landmarks), adapting the TIMI frame-count method to peripheral blood flow^13. Blood flow measurements correlate well with results obtained with doppler flow-wire in the internal iliac artery (Jomed, Haan, Germany). Tissue specimens were sampled from the right gastrocnemius and fibularis muscles for histology (alkaline phosphatase staining using an indoxyl-tetrazolium method), capillary density was assessed as the ratio of capillaries to muscle fibers (4 fields, 200× magnitude).
To assess the effect of LL-37/hCAP-18 on both angiogenesis and the induction of collateral circulation under pathological conditions, we applied the substance in a rabbit hind limb model. In this model angiogenesis and collateral vessel growth (arteriogenesis) are induced by excision of the femoral artery. Seven days after surgical excision of the femoral artery, baseline measurements were performed and LL-37/hCAP-18 or buffer as control were injected into the ischemic hindlimb.

[4] = system: HUVECs; assay: Inhibition of the LL-37/hCAP-18-induced proliferative response of endothelial cells; format: cell-based, human; settings: for effect of the inhibitor on LL-37/hCAP-18-induced endothelial proliferation: HUVECs preincubated with the inhibitor (pertussis toxin 10 ng/ml); for effect of the inhibitor on baseline cell proliferation: HUVECs, without LL-37/hCAP-18
Method: as §1
As a next step we analyzed which mechanisms might be involved in the angiogenic activity of LL-37/hCAP-18. We applied inhibitors of G-protein coupled receptors (pertussis toxin), PI-3K (wortmannin), and PKC (GF 109203X) and monitored cell proliferation as outcome parameter.

[5] = serum free medium, cell count after 72 h

Row | Compound | endothelial proliferation [1, 5] | effect of the inhibitor on LL-37/hCAP-18-induced endothelial proliferation [4] | effect of the inhibitor on baseline cell proliferation [4] | other results
1 | LLGDFFRKSKEKIGKEFKRIVQRIKDFLRNLVPRTES [LL-37/hCAP-18, human cathelicidin antimicrobial peptide, the 37 C-terminal amino acid residues; synthetic peptide used in the tests] | dose-dependent increase of endothelial proliferation | – | – | proliferative activity in the presence of human serum ([1]; 10% human serum, 72 h): not inhibited; also recorded: not blocked; minimal concentration necessary to induce significant increase of proliferation [1, 5]: 50 ng/mL; formation of rings and cords of cells [2]: significantly induces the formation of visible rings and cords of cells; blood flow (cine-frame-count of contrast agent passage time) [3]: significantly increased; also recorded: significantly augmented; capillary density (capillaries to muscle fibers, calf muscles) [3]: higher capillary density; collateral growth (increase in angiographic collateral score, medial thigh) [3]: significantly increased collateral growth; also recorded: significant increase
2 | pertussis toxin | – | inhibition of the proliferative response; also recorded: inhibited activities of LL-37/hCAP-18 on endothelial proliferation | no effect on the baseline measurements | –
3 | WKYMVm (WKYMV[dM]) [synthetic hexapeptide, "m" denotes the D-form of methionine; specific agonist for FPRL1, reference compound] | stimulated proliferation of endothelial cells | – | – | –
4 | CN(C)CCCn1cc(C2=C(c3c[nH]c4ccccc34)C(=O)NC2=O)c2ccccc21 [GF 109203X] | – | inhibition of the proliferative response; also recorded: inhibited activities of LL-37/hCAP-18 on endothelial proliferation | no effect on the baseline measurements | –
